From US10160747B2, “Compounds and methods for kinase modulation, and indications therefor” (Plexxikon Inc., priority 2016, dated 2018)

Assays:
[1] = target: T1, c-KIT (Homo sapiens, UniProt P10721); assay: c-KIT recombinant enzyme kinase assay (AlphaScreen); assay type: biochemical; settings: 100 ATP, 8 pt
T1 construct: purchased Millipore 14-559K
Procedure, shortened: (§1)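 IC50 values are derived from reduced AlphaScreen signal as inhibitors block tyrosine phosphorylation of a biotinylated poly(Glu4-Tyr) peptide (30 nM) by recombinant kinase. FLT3 variants are run at 10 μM ATP, c-KIT at 100 μM.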

[2] = target: T2, FLT3-ITD (Homo sapiens, UniProt P36888); assay: FLT3-ITD recombinant enzyme kinase assay (AlphaScreen); assay type: biochemical; settings: 8 pt; read-out: FLT3_ITD 8 pt: IC50
T2 sequence (P36888 1-993): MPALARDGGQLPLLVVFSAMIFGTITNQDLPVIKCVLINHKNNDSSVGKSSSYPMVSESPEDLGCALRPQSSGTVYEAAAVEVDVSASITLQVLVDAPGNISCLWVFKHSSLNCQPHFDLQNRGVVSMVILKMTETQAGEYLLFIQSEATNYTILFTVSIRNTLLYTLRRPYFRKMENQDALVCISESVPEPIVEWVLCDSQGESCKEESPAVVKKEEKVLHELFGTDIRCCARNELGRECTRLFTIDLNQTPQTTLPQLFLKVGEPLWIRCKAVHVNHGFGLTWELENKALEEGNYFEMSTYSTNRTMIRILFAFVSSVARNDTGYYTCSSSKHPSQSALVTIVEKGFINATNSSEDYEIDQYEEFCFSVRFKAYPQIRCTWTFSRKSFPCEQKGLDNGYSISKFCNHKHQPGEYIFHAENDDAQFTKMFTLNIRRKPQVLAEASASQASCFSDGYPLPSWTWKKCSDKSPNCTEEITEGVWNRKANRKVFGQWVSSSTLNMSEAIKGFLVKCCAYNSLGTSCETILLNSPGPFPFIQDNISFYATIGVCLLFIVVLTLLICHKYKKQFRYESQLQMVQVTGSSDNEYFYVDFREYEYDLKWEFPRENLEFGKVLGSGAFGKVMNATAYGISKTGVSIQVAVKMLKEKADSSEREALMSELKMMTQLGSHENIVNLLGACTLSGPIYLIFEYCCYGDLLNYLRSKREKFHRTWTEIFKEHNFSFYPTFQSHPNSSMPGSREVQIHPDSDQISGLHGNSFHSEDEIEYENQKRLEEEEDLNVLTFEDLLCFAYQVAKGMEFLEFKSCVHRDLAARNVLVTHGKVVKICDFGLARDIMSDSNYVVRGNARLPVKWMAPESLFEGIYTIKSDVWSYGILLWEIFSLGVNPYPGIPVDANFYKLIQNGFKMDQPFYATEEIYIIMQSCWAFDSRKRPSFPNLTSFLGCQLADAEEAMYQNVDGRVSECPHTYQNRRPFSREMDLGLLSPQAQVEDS
Procedure, shortened: as §1

T1 sequence (P10721 26-976): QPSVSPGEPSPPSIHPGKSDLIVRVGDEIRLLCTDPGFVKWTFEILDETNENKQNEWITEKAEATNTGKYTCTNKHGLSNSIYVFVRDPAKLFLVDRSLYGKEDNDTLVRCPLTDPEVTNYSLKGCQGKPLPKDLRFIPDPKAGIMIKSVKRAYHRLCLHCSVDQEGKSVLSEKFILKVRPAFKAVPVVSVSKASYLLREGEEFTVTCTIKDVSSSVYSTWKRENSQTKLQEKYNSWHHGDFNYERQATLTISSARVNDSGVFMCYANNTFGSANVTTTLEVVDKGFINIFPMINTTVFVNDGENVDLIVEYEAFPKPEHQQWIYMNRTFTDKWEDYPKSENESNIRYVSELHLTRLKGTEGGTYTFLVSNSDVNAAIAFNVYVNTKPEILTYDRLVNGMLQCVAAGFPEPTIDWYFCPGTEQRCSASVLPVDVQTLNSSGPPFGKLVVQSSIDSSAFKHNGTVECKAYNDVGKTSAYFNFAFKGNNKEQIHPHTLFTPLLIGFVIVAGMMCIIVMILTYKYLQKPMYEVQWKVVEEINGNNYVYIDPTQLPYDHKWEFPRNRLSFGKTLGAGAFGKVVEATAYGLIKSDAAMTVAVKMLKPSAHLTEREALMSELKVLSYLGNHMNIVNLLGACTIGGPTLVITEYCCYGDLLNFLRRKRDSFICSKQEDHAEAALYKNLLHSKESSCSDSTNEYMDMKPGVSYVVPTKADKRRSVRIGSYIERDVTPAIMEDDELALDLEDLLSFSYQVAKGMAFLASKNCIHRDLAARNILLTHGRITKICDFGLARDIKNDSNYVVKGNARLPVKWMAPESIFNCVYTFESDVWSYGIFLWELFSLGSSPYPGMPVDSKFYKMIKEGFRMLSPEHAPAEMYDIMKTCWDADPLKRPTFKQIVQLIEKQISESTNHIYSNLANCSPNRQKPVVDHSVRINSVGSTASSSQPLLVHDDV

Structure (SMILES)	IC50 [1] [µM]	IC50 [2] [µM]
Cn1cc(Nc2ncc(-c3ccc(CC(=O)Nc4cncc(C(F)(F)F)c4)cc3)cn2)cn1 [Compound P-0136, 2-[4-[2-[(1-methylpyrazol-4-yl)amino]pyrimidin-5-yl]phenyl]-N-[5-(trifluoromethyl)-3-pyridyl]acetamide]	0.0001 to 10	0.0001 to 10
COCCn1cc(Nc2ncc(-c3ccc(CC(=O)Nc4cncc(C(F)(F)F)c4)cc3)cn2)cn1 [Compound P-0178, 2-[4-[2-[[1-(2-methoxyethyl)pyrazol-4-yl]amino]pyrimidin-5-yl]phenyl]-N-[5-(trifluoromethyl)-3-pyridyl]acetamide]	0.0001 to 10	0.0001 to 10
Cn1cc(Nc2ncc(-c3ccc(CC(=O)Nc4cnc(Cl)c(C(F)(F)F)c4)cc3)cn2)cn1 [Compound P-0145, N-[6-chloro-5-(trifluoromethyl)-3-pyridyl]-2-[4-[2-[(1-methylpyrazol-4-yl)amino]pyrimidin-5-yl]phenyl]acetamide]	0.0001 to 10	0.0001 to 10
CC(C)c1cc(NC(=O)Cc2ccc(-c3cnc(Nc4cnn(C)c4)nc3)cc2F)ccn1 [Compound P-0094, 2-[2-fluoro-4-[2-[(1-methylpyrazol-4-yl)amino]pyrimidin-5-yl]phenyl]-N-(2-isopropyl-4-pyridyl)acetamide]	0.0001 to 10	0.0001 to 10
Cc1ncc(NC(=O)Cc2ccc(-c3cnc(Nc4cnn(C)c4)nc3)cc2F)cc1C(F)(F)F [Compound P-0091, 2-[2-fluoro-4-[2-[(1-methylpyrazol-4-yl)amino]pyrimidin-5-yl]phenyl]-N-[6-methyl-5-(trifluoromethyl)-3-pyridyl]acetamide]	0.0001 to 10	0.0001 to 10
Cn1cc(Nc2ncc(-c3ccc(CC(=O)Nc4ccnc(S(C)(=O)=O)c4)cc3)cn2)cn1 [Compound P-0154, 2-[4-[2-[(1-methylpyrazol-4-yl)amino]pyrimidin-5-yl]phenyl]-N-(2-methylsulfonyl-4-pyridyl)acetamide]	0.0001 to 10	0.0001 to 10
Cn1cnc(Nc2ncc(-c3ccc(CC(=O)Nc4cc(C(F)(F)F)ccn4)c(F)c3)cn2)c1 [Compound P-0096, 2-[2-fluoro-4-[2-[(1-methylimidazol-4-yl)amino]pyrimidin-5-yl]phenyl]-N-[4-(trifluoromethyl)-2-pyridyl]acetamide]	0.0001 to 10	0.0001 to 10
N#Cc1cc(-c2cc3cc(-c4ccc(CC(=O)Nc5cc(C(F)(F)F)ccn5)cc4F)cnc3[nH]2)ccn1 [Compound P-0194, 2-[4-[2-(2-cyano-4-pyridyl)-1H-pyrrolo[2,3-b]pyridin-5-yl]-3-fluoro-phenyl]-N-[4-(trifluoromethyl)-2-pyridyl]acetamide]	0.0001 to 10	0.0001 to 10
Cn1cc(Nc2ncc(-c3ccc(CC(=O)Nc4cnnc(Cl)c4)cc3)cn2)cn1 [Compound P-0151, N-(6-chloropyridazin-4-yl)-2-[4-[2-[(1-methylpyrazol-4-yl)amino]pyrimidin-5-yl]phenyl]acetamide]	0.0001 to 10	0.0001 to 10
Cn1cc(Nc2ncc(-c3ccc(CC(=O)Nc4ccc(C(F)(F)F)c(F)c4)cc3)cn2)cn1 [Compound P-0142, N-[3-fluoro-4-(trifluoromethyl)phenyl]-2-[4-[2-[(1-methylpyrazol-4-yl)amino]pyrimidin-5-yl]phenyl]acetamide]	0.0001 to 10	0.0001 to 10
COc1ncc(NC(=O)Cc2cc(F)c(-c3cnc4[nH]nc(C)c4c3)cc2F)cc1C(F)(F)F [Compound P-0176, 2-[2,5-difluoro-4-(3-methyl-1H-pyrazolo[3,4-b]pyridin-5-yl)phenyl]-N-[6-methoxy-5-(trifluoromethyl)-3-pyridyl]acetamide]	0.0001 to 10	0.0001 to 10
Cn1cnc(Nc2ncc(-c3ccc(CC(=O)Nc4cncc(C(F)(F)F)c4)cc3)cn2)c1 [Compound P-0167]	0.0001 to 10	0.0001 to 10
Cn1cc(Nc2ncc(-c3ccc(CC(=O)Nc4cc(Cl)c(C5CC5)cn4)c(F)c3)cn2)cn1 [Compound P-0107, N-(4-chloro-5-cyclopropyl-2-pyridyl)-2-[2-fluoro-4-[2-[(1-methylpyrazol-4-yl)amino]pyrimidin-5-yl]phenyl]acetamide]	0.0001 to 10	0.0001 to 10
COCCn1cc(Nc2ncc(-c3ccc(CC(=O)Nc4cnc(C)c(C(F)(F)F)c4)cc3)cn2)cn1 [Compound P-0179, 2-[4-[2-[[1-(2-methoxyethyl)pyrazol-4-yl]amino]pyrimidin-5-yl]phenyl]-N-[6-methyl-5-(trifluoromethyl)-3-pyridyl]acetamide]	0.0001 to 10	0.0001 to 10
Cn1cc(Nc2ncc(-c3ccc(CC(=O)Nc4cccc(C(F)(F)F)n4)cc3)cn2)cn1 [Compound P-0152, 2-[4-[2-[(1-methylpyrazol-4-yl)amino]pyrimidin-5-yl]phenyl]-N-[6-(trifluoromethyl)-2-pyridyl]acetamide]	0.0001 to 10	0.0001 to 10
Cn1cc(Nc2ncc(-c3ccc(CC(=O)Nc4ccnc(C(F)(F)F)c4)cc3)cn2)cn1 [Compound P-0134, 2-[4-[2-[(1-methylpyrazol-4-yl)amino]pyrimidin-5-yl]phenyl]-N-[2-(trifluoromethyl)-4-pyridyl]acetamide]	0.0001 to 10	0.0001 to 10
Cn1cc(Nc2ncc(-c3ccc(CC(=O)Nc4ccc(S(C)(=O)=O)cc4)cc3)cn2)cn1 [Compound P-0156, 2-[4-[2-[(1-methylpyrazol-4-yl)amino]pyrimidin-5-yl]phenyl]-N-(4-methylsulfonylphenyl)acetamide]	0.0001 to 10	0.0001 to 10
Cc1ncc(NC(=O)Cc2ccc(-c3cnc(Nc4cnn(C)c4)nc3)cc2)cc1C(F)(F)F [Compound P-0140, 2-[4-[2-[(1-methylpyrazol-4-yl)amino]pyrimidin-5-yl]phenyl]-N-[6-methyl-5-(trifluoromethyl)-3-pyridyl]acetamide]	0.0001 to 10	0.0001 to 10
O=C(Cc1ccc(-c2cnc3[nH]c(-c4ccnc(N5CCOCC5)c4)cc3c2)cn1)Nc1ccnc(C(F)(F)F)c1 [Compound P-0181, 2-[5-[2-(2-morpholino-4-pyridyl)-1H-pyrrolo[2,3-b]pyridin-5-yl]-2-pyridyl]-N-[2-(trifluoromethyl)-4-pyridyl]acetamide]	0.0001 to 10	0.0001 to 10
N#Cc1cc(-c2cc3cc(-c4ccc(CC(=O)Nc5cncc(C(F)(F)F)c5)cc4F)cnc3[nH]2)ccn1 [Compound P-0199, 2-[4-[2-(2-cyano-4-pyridyl)-1H-pyrrolo[2,3-b]pyridin-5-yl]-3-fluoro-phenyl]-N-[5-(trifluoromethyl)-3-pyridyl]acetamide]	0.0001 to 10	0.0001 to 10
COc1ncc(NC(=O)Cc2ccc(-c3cnc(Nc4cnn(C)c4)nc3)cc2)cc1C(F)(F)F [Compound P-0138, N-[6-methoxy-5-(trifluoromethyl)-3-pyridyl]-2-[4-[2-[(1-methylpyrazol-4-yl)amino]pyrimidin-5-yl]phenyl]acetamide]	0.0001 to 10	0.0001 to 10
Cn1cc(Nc2ncc(-c3ccc(CC(=O)Nc4ccc(C(C)(C)C#N)nc4)c(F)c3)cn2)cn1 [Compound P-0108, N-[6-(1-cyano-1-methyl-ethyl)-3-pyridyl]-2-[2-fluoro-4-[2-[(1-methylpyrazol-4-yl)amino]pyrimidin-5-yl]phenyl]acetamide]	0.0001 to 10	0.0001 to 10
Cn1cnc(Nc2ncc(-c3ccc(CC(=O)Nc4cc(C(C)(F)F)ccn4)c(F)c3)cn2)c1 [Compound P-0102, N-[4-(1,1-difluoroethyl)-2-pyridyl]-2-[2-fluoro-4-[2-[(1-methylimidazol-4-yl)amino]pyrimidin-5-yl]phenyl]acetamide]	0.0001 to 10	0.0001 to 10
Cn1cnc(Nc2ncc(-c3ccc(CC(=O)Nc4cncc(C(C)(F)F)c4)c(F)c3)cn2)c1 [Compound P-0103, N-[5-(1,1-difluoroethyl)-3-pyridyl]-2-[2-fluoro-4-[2-[(1-methylimidazol-4-yl)amino]pyrimidin-5-yl]phenyl]acetamide]	0.0001 to 10	0.0001 to 10
Cn1cnc(Nc2ncc(-c3ccc(CC(=O)Nc4cnc(F)c(C(C)(F)F)c4)cc3F)cn2)c1 [Compound P-0170, N-[5-(1,1-difluoroethyl)-6-fluoro-3-pyridyl]-2-[3-fluoro-4-[2-[(1-methylimidazol-4-yl)amino]pyrimidin-5-yl]phenyl]acetamide]	0.0001 to 10	0.0001 to 10
